# Data published in ChEMBL document CHEMBL1140353, “Structure-activity relationships of 1-alkyl-5-(3,4-dichlorophenyl)-5-{2-[3-(substituted)-1-azetidinyl]-ethyl}-2-piperidones. Part 2: Improving oral absorption” (Bioorg Med Chem Lett, 2005).
# Tests used:
# [1] = target: T1, Substance-K receptor (Homo sapiens, UniProt P21452); test: Inhibition of human Neurokinin 2 receptor
# T1 sequence (P21452 whole entry): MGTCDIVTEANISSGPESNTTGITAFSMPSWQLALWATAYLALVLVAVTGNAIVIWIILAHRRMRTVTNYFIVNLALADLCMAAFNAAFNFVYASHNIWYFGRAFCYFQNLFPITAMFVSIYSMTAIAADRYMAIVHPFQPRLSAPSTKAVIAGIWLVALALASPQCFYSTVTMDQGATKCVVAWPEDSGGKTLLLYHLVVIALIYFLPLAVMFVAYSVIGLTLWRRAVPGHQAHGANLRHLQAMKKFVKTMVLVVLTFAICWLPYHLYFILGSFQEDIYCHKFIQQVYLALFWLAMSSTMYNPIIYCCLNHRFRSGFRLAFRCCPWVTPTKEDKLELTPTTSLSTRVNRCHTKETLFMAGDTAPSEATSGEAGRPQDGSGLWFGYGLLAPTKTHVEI
# [2] = target: T2, Substance-K receptor (Oryctolagus cuniculus, UniProt P79218); test: pA2 for NK2 receptor of rabbit pulmonary artery; format: functional; details: read-out: pA2 (converted)
# T2 sequence (P79218 whole entry): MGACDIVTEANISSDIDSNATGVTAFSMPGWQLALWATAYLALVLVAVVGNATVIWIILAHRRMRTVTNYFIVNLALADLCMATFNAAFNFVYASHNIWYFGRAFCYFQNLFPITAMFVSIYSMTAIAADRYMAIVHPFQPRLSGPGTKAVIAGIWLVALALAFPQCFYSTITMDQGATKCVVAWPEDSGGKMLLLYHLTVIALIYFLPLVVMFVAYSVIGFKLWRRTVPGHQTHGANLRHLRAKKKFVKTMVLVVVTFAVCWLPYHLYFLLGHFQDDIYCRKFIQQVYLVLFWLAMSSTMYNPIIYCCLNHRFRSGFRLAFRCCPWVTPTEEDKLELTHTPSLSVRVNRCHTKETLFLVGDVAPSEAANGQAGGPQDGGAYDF
# [3] = organism: Homo sapiens; test: Ratio of apical basolateral (A-B) and basolateral apical (B-A) determined by Caco-2 assay in human (ER=6/12); format: ADME
# [4] = organism: Homo sapiens; test: Ratio of apical basolateral (A-B) and basolateral apical (B-A) determined by Caco-2 assay in human (ER<2); format: ADME
# [5] = Half life in human microsomal liver cells; format: ADME; details: liver microsomes
# [6] = target: T1, Substance-K receptor; test: pKi for human Neurokinin 2 receptor
# [7] = organism: Homo sapiens; test: Ratio of apical basolateral (A-B) and basolateral apical (B-A) determined by Caco-2 assay in human (ER=33/35); format: ADME
# [8] = target: T1, Substance-K receptor; test: pA2 for NK2 receptor of Human bladder; format: functional; details: read-out: pA2 (converted)
# [9] = Oral absorption of 10 mg/kg tested in rat; format: ADME, organism-based; design: dose 10 mg/kg; details: in vivo, read-out: Absorption
# [10] = Distribution coefficient (Log D) value at pH 7.4; format: physicochemical; details: octanol/water
# [11] = organism: Homo sapiens; test: Ratio of apical basolateral (A-B) and basolateral apical (B-A) determined by Caco-2 assay in human; (ratio=1/18); format: ADME
# [12] = In vivo clearance of […] mg/kg of compound tested in human; format: ADME, organism-based; details: 10 mg/kg
# [13] = organism: Homo sapiens; test: Ratio of apical basolateral (A-B) and basolateral apical (B-A) determined by Caco-2 assay in human (ratio=2/3); format: ADME
# [14] = organism: Homo sapiens; test: Ratio of apical basolateral (A-B) and basolateral apical (B-A) determined by Caco-2 assay in human (ER=60/60); format: ADME
# [15] = target: Substance-P receptor (Homo sapiens, UniProt P25103); test: Inhibitory concentration for Tachykinin 1 receptor of human IM9 cells; format: cell-based, IM-9
# [16] = Oral absorption of 20 mg/kg tested in rat; format: ADME, organism-based; design: dose 20 mg/kg; details: in vivo, read-out: Absorption
# [17] = organism: Homo sapiens; test: Ratio of apical basolateral (A-B) and basolateral apical (B-A) determined by Caco-2 assay in human (ER=1); format: ADME
# [18] = organism: Homo sapiens; test: Ratio of apical basolateral (A-B) and basolateral apical (B-A) determined by Caco-2 assay in human; format: ADME
# [19] = organism: Homo sapiens; test: Ratio of apical basolateral (A-B) and basolateral apical (B-A) determined by Caco-2 assay in human (ER=2/12); format: ADME
# [20] = organism: Homo sapiens; test: Ratio of apical basolateral (A-B) and basolateral apical (B-A) determined by Caco-2 assay in human (ratio=12/18); format: ADME
# [21] = organism: Homo sapiens; test: Ratio of apical basolateral (A-B) and basolateral apical (B-A) determined by Caco-2 assay in human (ER=12/16); format: ADME
# Sequence of Substance-P receptor (P25103 whole entry): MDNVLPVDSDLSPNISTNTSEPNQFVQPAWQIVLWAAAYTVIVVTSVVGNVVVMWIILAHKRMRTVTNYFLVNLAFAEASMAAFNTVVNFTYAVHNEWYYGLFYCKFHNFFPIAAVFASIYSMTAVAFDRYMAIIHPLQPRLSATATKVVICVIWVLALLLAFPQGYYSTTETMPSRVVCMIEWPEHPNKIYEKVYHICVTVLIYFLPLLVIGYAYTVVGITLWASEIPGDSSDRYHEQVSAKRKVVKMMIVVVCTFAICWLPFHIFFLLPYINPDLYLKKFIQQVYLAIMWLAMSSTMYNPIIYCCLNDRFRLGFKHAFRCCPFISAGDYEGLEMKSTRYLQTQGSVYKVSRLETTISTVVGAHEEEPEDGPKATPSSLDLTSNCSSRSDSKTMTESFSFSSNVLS
IC50 [1] [nM],Kb [2] [nM],half-life [5] [h],Compound,also measured
7.94,3.16,< 0.167,CS(=O)(=O)N1CCN(C2CN(CC[C@]3(c4ccc(Cl)c(Cl)c4)CCC(=O)N(CC4CC4)C3)C2)CC1,Caco-2 permeability [4]: 10 % hr-1
7.94,1.26,1.33,O=C1CC[C@](CCN2CC(N3CCOCC3)C2)(c2ccc(Cl)c(Cl)c2)CN1CC1CCC(F)(F)CC1,Caco-2 permeability [7]: Permeable
2.51,1.58,–,O=C1CC[C@](CCN2CC(N3CCC(F)CC3)C2)(c2ccc(Cl)c(Cl)c2)CN1CCC1CC1,–
15.8,10,–,CN(C)S(=O)(=O)N1CCN(C2CN(CC[C@]3(c4ccc(Cl)c(Cl)c4)CCC(=O)N(CC4CC4)C3)C2)CC1,–
3.98,1.26,> 2,NS(=O)(=O)N1CCN(C2CN(CC[C@]3(c4ccc(Cl)c(Cl)c4)CCC(=O)N(CC4CC4)C3)C2)CC1,Kb [8]: 1.58 nM; Fa [9]: < 20%; logD [10]: 1.7; Caco-2 permeability [11]: Permeable; clearance [12]: < 3 mL/min/kg
10,2.51,1.42,O=C1CC[C@](CCN2CC(N3CCC(F)CC3)C2)(c2ccc(Cl)c(Cl)c2)CN1CC1CC1,Caco-2 permeability [14]: Permeable
0.398,–,> 2,O=C1CC[C@](CCN2CC(N3CCC(F)CC3)C2)(c2ccc(Cl)c(Cl)c2)CN1CC1CCC(F)(F)CC1,IC50 [15]: > 10000 nM; Fa [16]: > 80%; Caco-2 permeability [17]: > 35 % hr-1
15.8,6.31,–,CCOC1CCN(C2CN(CC[C@]3(c4ccc(Cl)c(Cl)c4)CCC(=O)N(CC4CC4)C3)C2)CC1,Caco-2 permeability [17]: 34 % hr-1
1,0.2,–,NC1CCN(C2CN(CC[C@]3(c4ccc(Cl)c(Cl)c4)CCC(=O)N(CC4CCC(F)(F)CC4)C3)C2)CC1,Caco-2 permeability [18]: < 1 % hr-1; logD [10]: 0.1
1.26,0.0794,–,O=C1CC[C@](CCN2CC(N3CCC(O)CC3)C2)(c2ccc(Cl)c(Cl)c2)CN1CC1CCC(F)(F)CC1,logD [10]: 2.2; Caco-2 permeability [19]: Permeable

# The next lines start with the compound.
Compound,IC50 [1] [nM],Kb [2] [nM],half-life [5] [h],also measured
CS(=O)(=O)N1CCN(C2CN(CC[C@]3(c4ccc(Cl)c(Cl)c4)CCC(=O)N(CC4CCC(F)(F)CC4)C3)C2)CC1,1.26,1,–,Caco-2 permeability [3]: Permeable
O=C1CC[C@](CCN2CC(N3CCOCC3)C2)(c2ccc(Cl)c(Cl)c2)CN1C1(C2CC2)CCCC1,–,0.251,< 0.0167,pKi [6]: 9.5
NC1CCN(C2CN(CC[C@]3(c4ccc(Cl)c(Cl)c4)CCC(=O)N(CC4CC4)C3)C2)CC1,6.31,2,–,Caco-2 permeability [13]: Permeable
O=C1CC[C@](CCN2CC(N3CCC(F)CC3)C2)(c2ccc(Cl)c(Cl)c2)CN1C1(C2CC2)CCCC1,–,–,0.0333,Caco-2 permeability [14]: Permeable; pKi [6]: 10
O=C1CCN(C2CN(CC[C@]3(c4ccc(Cl)c(Cl)c4)CCC(=O)N(CC4CCC(F)(F)CC4)C3)C2)CC1,3.16,0.2,–,–
O=C1CC[C@](CCN2CC(N3CCOCC3)C2)(c2ccc(Cl)c(Cl)c2)CN1CC1CC1,79.4,2,2,logD [10]: 2.3; Caco-2 permeability [20]: Permeable
O=C1CC[C@](CCN2CC(N3CCOCC3)C2)(c2ccc(Cl)c(Cl)c2)CN1CC1CCCCC1,0.794,1,0.233,Caco-2 permeability [21]: Permeable
